How the values were obtained:
[1] = adverse events, same clinical trial; format: in vivo, human
Experimental: (§1) The experiments described in this example were conducted as part of a single-center, open-label, randomized, parallel-group clinical trial in 32 pre-menopausal women. Following screening assessments, and during the second half of the menstrual cycle, women received norethindrone (5 mg, three-times daily for 10 days) to synchronize menstrual cycles. After menstrual cycle synchronization, subjects were randomized with a 1:1 ratio to one of two treatment arms: (i) a cohort receiving once-daily administration of compound (VI) (200 mg per day, administered in the form of a choline salt) with concurrent onset of add-back therapy administration for 10 weeks (“Concurrent-ABT”), or (ii) a cohort receiving pre-treatment with compound (VI) (200 mg per day, administered in the form of a choline salt) for 4 weeks followed by combined daily administration of compound (VI) and add-back therapy (“Delayed-ABT”). The add-back therapy used in these experiments contained 1.0 mg of E2 and 0.5 mg of norethindrone acetate, and was administered to subjects once daily.
(§2) The main treatment outcomes and endpoints measured during these experiments included (i) a qualitative assessment of uterine blood loss, which was recorded on a daily basis throughout the study by characterizing each subject's bleeding pattern using one of the following four categories: “no bleeding,” “spotting” (light staining, dark blood, no sanitary protection needed or only panty liner), “bleeding” (1-4 completely soiled maxi sanitary towels or 1-8 soiled tampons or equivalent combination of the two), or “heavy bleeding” (>4 completely soiled maxi sanitary towels or >8 soiled tampons or equivalent combination of the two); (ii) a bi-weekly assessment of each subject's circulating E2 concentration; (iii) a bi-weekly assessment of each subject's circulating progesterone concentration (measured using a validated commercial chemiluminescence immunoassay method (Elecsys Progesterone III, Roche, Burgess Hill, UK)); (iv) the pharmacokinetic profile of compound (VI) and the add-back therapy; and (v) adverse events.

progesterone = assay: circulating progesterone concentration, same clinical trial; format: in vivo, human; settings: both cohorts (Concurrent-ABT and Delayed-ABT), exception of a single outlier subject, FIG. 3B
Experimental: The experiments described in this example were conducted as part of a single-center, open-label, randomized, parallel-group clinical trial in 32 pre-menopausal women. Following screening assessments, and during the second half of the menstrual cycle, women received norethindrone (5 mg, three-times daily for 10 days) to synchronize menstrual cycles. […]
as §2

β17-estradiol (E2) = assay: circulating E2 concentration, same clinical trial; format: in vivo, human; settings: for median E2 level: Delayed-ABT cohort, Compound (VI) alone
Experimental: as §1, §2

[2] = half-life in a human patient; settings: in vivo, also the choline salt (VIa)
[3] = Days 29-42, treatment B (Delayed-ABT), N=15
[4] = Days 43-56, Overall (A+B), N=29
[5] = Days 43-56, treatment A (Concurrent-ABT), N=14
[6] = Days 43-56, treatment B (Delayed-ABT), N=15
[7] = Days 57-70, Overall (A+B), N=29
[8] = Days 57-70, treatment A (Concurrent-ABT), N=14
[9] = Days 57-70, treatment B (Delayed-ABT), N=15
[10] = events of all reported adverse events, both cohorts

For `COc1cc(F)c(-n2c(=O)[nH]c3csc(C(=O)O)c3c2=O)cc1OCc1c(OC)ccc(F)c1F` [Compound (VI), 3-[2-fluoro-5-(2,3-difluoro-6-methoxybenzyloxy)4-methoxyphenyl]-2,4-dioxo-1,2,3,4-tetrahydrothieno [3,4d]pyrimidine-5-carboxylic acid], the “Hot Flush, subjects (%), Plasma Estradiol Level 20-50 pg/mL” value [1, 3] was “(20.0%)”, the “Hot Flush, subjects (%), Plasma Estradiol Level <20 pg/mL” value [1, 3] was “(13.3%)” and the “Hot Flush, subjects (%), Plasma Estradiol Level >50 pg/mL” value [1, 3] was “(0.0%)”. The “Hot Flush, subjects (n), Plasma Estradiol Level 20-50 pg/mL” value [1, 3] was 3, the “Hot Flush, subjects (n), Plasma Estradiol Level <20 pg/mL” value [1, 3] was 2 and the “Hot Flush, subjects (n), Plasma Estradiol Level >50 pg/mL” value [1, 3] was 0. The “Hot Flush, subjects (%), Plasma Estradiol Level 20-50 pg/mL” value [1, 4] was “(0.0%)”, the “Hot Flush, subjects (%), Plasma Estradiol Level <20 pg/mL” value [1, 4] was “(3.4%)” and the “Hot Flush, subjects (%), Plasma Estradiol Level >50 pg/mL” value [1, 4] was “(0.0%)”. For the same compound, the “Hot Flush, subjects (n), Plasma Estradiol Level 20-50 pg/mL” value [1, 4] was 0, the “Hot Flush, subjects (n), Plasma Estradiol Level <20 pg/mL” value [1, 4] was 1 and the “Hot Flush, subjects (n), Plasma Estradiol Level >50 pg/mL” value [1, 4] was 0. The “Hot Flush, subjects (%), Plasma Estradiol Level 20-50 pg/mL” value [1, 5] was “(0.0%)”, the “Hot Flush, subjects (%), Plasma Estradiol Level <20 pg/mL” value [1, 5] was “(0.0%)” and the “Hot Flush, subjects (%), Plasma Estradiol Level >50 pg/mL” value [1, 5] was “(0.0%)”. For the same compound, the “Hot Flush, subjects (n), Plasma Estradiol Level 20-50 pg/mL” value [1, 5] was 0, the “Hot Flush, subjects (n), Plasma Estradiol Level <20 pg/mL” value [1, 5] was 0 and the “Hot Flush, subjects (n), Plasma Estradiol Level >50 pg/mL” value [1, 5] was 0. For the same compound, the “Hot Flush, subjects (%), Plasma Estradiol Level 20-50 pg/mL” value [1, 6] was “(0.0%)”, the “Hot Flush, subjects (%), Plasma Estradiol Level <20 pg/mL” value [1, 6] was “(6.7%)” and the “Hot Flush, subjects (%), Plasma Estradiol Level >50 pg/mL” value [1, 6] was “(0.0%)”. The “Hot Flush, subjects (n), Plasma Estradiol Level 20-50 pg/mL” value [1, 6] was 0, the “Hot Flush, subjects (n), Plasma Estradiol Level <20 pg/mL” value [1, 6] was 1 and the “Hot Flush, subjects (n), Plasma Estradiol Level >50 pg/mL” value [1, 6] was 0. For the same compound, the “Hot Flush, subjects (%), Plasma Estradiol Level 20-50 pg/mL” value [1, 7] was “(0.0%)”, the “Hot Flush, subjects (%), Plasma Estradiol Level <20 pg/mL” value [1, 7] was “(0.0%)” and the “Hot Flush, subjects (%), Plasma Estradiol Level >50 pg/mL” value [1, 7] was “(0.0%)”. The “Hot Flush, subjects (n), Plasma Estradiol Level 20-50 pg/mL” value [1, 7] was 0, the “Hot Flush, subjects (n), Plasma Estradiol Level <20 pg/mL” value [1, 7] was 0 and the “Hot Flush, subjects (n), Plasma Estradiol Level >50 pg/mL” value [1, 7] was 0. For the same compound, the “Hot Flush, subjects (%), Plasma Estradiol Level 20-50 pg/mL” value [1, 8] was “(0.0%)”, the “Hot Flush, subjects (%), Plasma Estradiol Level <20 pg/mL” value [1, 8] was “(0.0%)” and the “Hot Flush, subjects (%), Plasma Estradiol Level >50 pg/mL” value [1, 8] was “(0.0%)”. The “Hot Flush, subjects (n), Plasma Estradiol Level 20-50 pg/mL” value [1, 8] was 0, the “Hot Flush, subjects (n), Plasma Estradiol Level <20 pg/mL” value [1, 8] was 0 and the “Hot Flush, subjects (n), Plasma Estradiol Level >50 pg/mL” value [1, 8] was 0. For the same compound, the “Hot Flush, subjects (%), Plasma Estradiol Level 20-50 pg/mL” value [1, 9] was “(0.0%)”, the “Hot Flush, subjects (%), Plasma Estradiol Level <20 pg/mL” value [1, 9] was “(0.0%)” and the “Hot Flush, subjects (%), Plasma Estradiol Level >50 pg/mL” value [1, 9] was “(0.0%)”. The “Hot Flush, subjects (n), Plasma Estradiol Level 20-50 pg/mL” value [1, 9] was 0, the “Hot Flush, subjects (n), Plasma Estradiol Level <20 pg/mL” value [1, 9] was 0 and the “Hot Flush, subjects (n), Plasma Estradiol Level >50 pg/mL” value [1, 9] was 0. The tolerability ([1]; both cohorts) was “well-tolerated”, the “adverse events: headache” value [1, 10] was 38/166 and the “adverse events: hot flushes” value [1, 10] was 19/166. The circulating progesterone (progesterone) was “sustained reduction in circulating progesterone”, the median E2 levels, window never left (β17-estradiol (E2); Concurrent-ABT cohort, whole study) was 20 to 50 pg/mL and the median E2 level (β17-estradiol (E2); by week 2) was 3.7 pg/mL. The median E2 level (β17-estradiol (E2); by week 4) was 4.1 pg/mL and the half-life [2] was 14 to 15 h.
